Active and inactive are the calls of the source. The calls are words filed in the database; no cut-off is given here.
What was measured:
SH-SY5Y [1] = assay: Neuroprotective activity against TBHP-induced human SH-SY5Y cells assessed as decrease in ROS production at 0.001 to 10 uM after 6 hrs by DCFH-DA dye based spectrophotometric assay relative to control; type: functional; set-up: scale not given: the % may be the effect or the level left; details: dose 0.001-10 µM
SH-SY5Y [2] = assay: Neuroprotective activity against TBHP-induced cytotoxicity in human SH-SY5Y cells assessed as increase in cell viability at 10 uM after 6 hrs by MTT assay; type: functional, cell-based
BV-2 [3] = assay: Cytotoxicity against mouse BV-2 cells assessed as reduction in cell viability at 0.001 to 10 uM after 24 hrs by MTT assay; type: cell-based; details: bv-2, 24 h, dose 0.001-10 µM
SH-SY5Y [4] = assay: Cytotoxicity against human SH-SY5Y cells assessed as reduction in cell viability at 0.001 to 10 uM after 24 hrs by MTT assay; type: cell-based; details: dose 0.001-10 µM
BV-2 [5] = assay: Inhibition of LPS-induced NO production in mouse BV-2 cells at 0.1 to 1 uM preincubated for 1 hrs followed by LPS-stimulation and measured after 24 hrs by Griess reagent based spectrophotometric assay; type: functional, cell-based; details: dose 0.1-1 µM
SH-SY5Y [6] = assay: Neuroprotective activity against TBHP-induced human SH-SY5Y cells assessed as decrease in ROS production at 1 uM after 6 hrs by DCFH-DA dye based spectrophotometric assay relative to control; type: functional; set-up: scale not given: the % may be the effect or the level left
SH-SY5Y [7] = assay: Neuroprotective activity against TBHP-induced cytotoxicity in human SH-SY5Y cells assessed as increase in cell viability at 0.001 uM after 6 hrs by MTT assay; type: functional, cell-based

SMILES | Activity (SH-SY5Y [1]) | Activity (SH-SY5Y [2]) | Activity (BV-2 [3]) | Activity (SH-SY5Y [4]) | inhibition (BV-2 [5]) | Activity (SH-SY5Y [6]) | Activity (SH-SY5Y [7])
Nc1nc([C@H]2[C@H](CNC(=O)c3cc(Br)c(Br)[nH]3)/C(=C\CNC(=O)c3ccc[nH]3)c3cnc(N)n32)c[nH]1 | 35% | Active | Non-Toxic | Non-Toxic |  |  | 
Nc1nc(/C=C/CNC(=O)c2cc(Br)c[nH]2)c[nH]1 |  |  | Non-Toxic | Non-Toxic | Active | >25% | Active
Nc1ncc(/C=C/CNC(=O)c2cc(Br)c(Br)[nH]2)[nH]1 [OROIDIN] |  |  | Non-Toxic | Non-Toxic |  |  | Active
C[C@]1(COC(=O)c2cc(Br)c[nH]2)C[C@@H](C(=O)O)N=CN1 [MANZACIDIN A] |  |  | Non-Toxic | Non-Toxic |  | >25% | Active
NC1=N[C@]2([C@H](O)N1)[C@@H](Cl)[C@H](CNC(=O)c1cc(Br)c(Br)[nH]1)[C@H]1CN3C(=O)c4[nH]ccc4[C@@H]4N=C(N)N[C@@]43[C@@H]12.O=C(O)C(F)(F)F.O=C(O)C(F)(F)F |  |  | Non-Toxic | Non-Toxic |  |  | 
NC1=N[C@]2([C@H](O)N1)[C@@H](Cl)[C@H](CNC(=O)c1cc(Br)c(Br)[nH]1)[C@H]1CN3C(=O)c4cccn4[C@@H]4N=C(N)N[C@@]43[C@@H]12.O=C(O)C(F)(F)F.O=C(O)C(F)(F)F | 35% |  | Non-Toxic | Non-Toxic | Active |  | 
